The values below come from patent publication US5508299A, “Imidazolyl-substituted cyclohexane derivatives” (Bayer Aktiengesellschaft, priority 1992, dated 1996).

For assay [1], the system named is smooth muscle cells from aortas of pigs. In words: Inhibition of the proliferation of smooth muscle cells (3H-thymidine incorporation). The settings on record: porcine aortic smooth muscle cells. It counts as cell-based, pig. As for the experimental part:
Investigation of the inhibition of the proliferation of smooth muscle cells by the compounds according to the invention
To determine the antiproliferative action of the compounds, smooth muscle cells are used which are obtained from aortas of pigs by the media explant technique [R. Ross, J. Cell. Biol. 50, 172, 1971]. The cells are inoculated into suitable culture dishes, as a rule 96-hole plates, and cultured at 37° C. in 5% CO2 for 2-3 days in medium 199 containing 7.5% FCS and 7.5% NCS, 2 mmol L-glutamine and 15 mmol HEPES, pH 7.4. The cells are then synchronised for 2-3 days by withdrawal of serum and then stimulated into growth using serum or other factors. Test compounds are simultaneously added. After 16-20 hours, 1 μCi ^3 H-thymidine is added and after a further 4 hours the incorporation of this substance into the TCA-precipitatable DNA of the cells is determined.
To determine the IC50 values, the active compound concentration is calculated which, on sequential dilution of the active compound, causes half-maximal inhibition of the thymidine incorporation produced by 1% FCS.

Assay [2] has as its system contractions of isolated rabbit aorta rings induced by angiotensin II (AII). Kind of assay: Inhibition of the vascular contraction induced by angiotensin II in isolated rabbit aorta rings in vitro. It counts as cell-based. The settings on record: Oryctolagus cuniculus, based on the 3rd = submaximal agonist concentration, read-out: IC50 against contractions induced by AII. As for the experimental part:
Investigation of the inhibition of the contraction induced by agonists
Rabbits of either sex are stunned by a blow to the back of the head and bled out, or in some cases anaesthetised with Nembutal (about 60-80 mg/kg i.v.) and sacrificed by opening the thorax. The thorax aorta is removed, freed from adhering connective tissue, divided into ring segments 1.5 mm wide and individually transferred under an initial loading of about 3.5 g to 10 ml organ baths containing Krebs-Henseleit nutrient solution, aerated with 95% O2 /5% CO2 and temperature-controlled at 37° C., of the following composition: 119 mmol/l of NaCl; 2.5 mmol/l of CaCl2 ×2H2 O; 1.2 mmol/l of KH2 PO4; 10 mmol/l of glucose; 4.8 mmol/l of KCl; 1.4 mmol/l of MgSO4 ×7 H2 O and 25 mmol/l of NaHCO3.
The contractions are determined isometrically by means of Statham UC2 cells via bridge amplifiers (ifd Mulheim or DSM Aalen) and digitalised by means of A/D converters (System 570, Keithley Munich) and assessed. The agonist dose response curves (DRCs) are plotted hourly. With each DRC, 3 or 4 individual concentrations are applied to the baths at a 4 min interval. After the end of the DRC and subsequent washing-out cycles (16 times in each case about 5 sec/min with the abovementioned nutrient solution), a 28-minute resting or incubation phase follows, within which the contractions as a rule reach the starting value again.
The height of the 3rd DRC, in a normal case, is used as a reference quantity for the assessment of the test substance to be investigated in further runs, which substance is applied to the baths in the following DRCs in increasing dose in each case at the start of the incubation period. Each aorta ring is in this case stimulated for the whole day, always with the same agonist.
Agonists and their standard concentrations (administration volume per individual dose=100 μl):
To calculate the IC50 (concentration at which the substance to be investigated causes a 50% inhibition), the effect is in each case based on the 3rd=submaximal agonist concentration.

The next assay addresses T1, angiotensin II receptor (Bos taurus, UniProt P25104).
T1 construct: partially purified membrane fractions of bovine AGC using radioactive angiotensin II; from tissue; host or cells: bovine adrenal gland cortex, partially purified membrane fractions
T1 sequence (P25104 1-359): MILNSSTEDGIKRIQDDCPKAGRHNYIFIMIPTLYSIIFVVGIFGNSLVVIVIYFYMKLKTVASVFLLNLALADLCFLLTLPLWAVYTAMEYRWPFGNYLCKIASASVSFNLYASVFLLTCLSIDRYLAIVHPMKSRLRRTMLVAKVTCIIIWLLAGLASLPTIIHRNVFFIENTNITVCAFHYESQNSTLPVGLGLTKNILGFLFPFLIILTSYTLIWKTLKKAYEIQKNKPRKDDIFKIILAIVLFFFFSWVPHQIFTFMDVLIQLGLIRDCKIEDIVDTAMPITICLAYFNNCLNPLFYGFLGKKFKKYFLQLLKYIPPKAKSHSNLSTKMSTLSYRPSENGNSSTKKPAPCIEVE
In words: Angiotensin II receptor binding in membrane fractions of the adrenal cortex (bovine). The note with it: bovine adrenal cortex membranes; 3H-angiotensin II (3-5 nM); 60 min, room temperature, pH 7.2. From the text:
Interaction of the compounds according to the invention with the angiotensin II receptor in membrane fractions of the adrenal cortex (bovine)
Adrenal gland cortices from cattle (AGCs), which have been freshly removed and carefully freed from gland medulla, are comminuted in sucrose solution (0.32M) with the aid of an Ultra-Turrax (Janke & Kunkel, Staufen i.B.) to give a coarse membrane homogenate and partially purified to give membrane fractions in two centrifugation steps.
The receptor binding investigations are carried out on partially purified membrane fractions of bovine AGC using radioactive angiotensin II in an assay volume of 0.25 ml, which specifically contains the partially purified membranes (50-80 μg), ^3 H-angiotensin II (3-5 nM), test buffer solution (50 mM Tris, pH 7.2, 5 mM MgCl2) and the substances to be investigated. After an incubation period of 60 min at room temperature, the unbound radioactivity of the samples is separated by means of moistened glass fibre filters (Whatman GF/C) and the bound radioactivity is measured […] in a scintillation cocktail after washing the protein with ice-cold buffer solution (50 mM Tris/HCl, pH 7.4, 5% PEG 6000). The raw data were analysed using computer programs to give Ki or IC50 values (K1 : IC50 values corrected for the radioactivity used; IC50 values: concentration at which the substance to be investigated causes a 50% inhibition of the specific binding of the radioligand).

In the case of `CCCCc1nc(Cl)c(CO)n1Cc1ccc(C2CCCCC2C(=O)N[C@H](CO)c2ccccc2)cc1` (single isomer, unassigned) [Example 11], in assay [1], the “Inhibition [%] at 10^-6 M” value turned out to be 100%.

With `CCCCc1nc(Cl)c(C=O)n1Cc1ccc(C2CCCCC2C(=O)N[C@H](CO)c2ccccc2)cc1` (single isomer, unassigned) [Example 6], the “Inhibition [%] at 10^-6 M” value in assay [1] is 41%.

For `CCCCc1nc(Cl)c(C=O)n1Cc1ccc(C2CCCCC2C(=O)N[C@H](CO)c2ccccc2)cc1` (single isomer, unassigned) [Example 7], the “Inhibition [%] at 10^-6 M” value in assay [1] was determined as 100%.

`CCCCc1nc(Cl)c(CO)n1Cc1ccc(C2CCCCC2C(=O)N[C@H](CO)c2ccccc2)cc1` (single isomer, unassigned) [Example 10]: the “Inhibition [%] at 10^-6 M” value in assay [1] was determined as 12%.

Turning to `CCCCc1nc(Cl)c(C(=O)O)n1Cc1ccc([C@@H]2CCCC[C@H]2C(=O)O)cc1` (relative stereo) [Example 4], the IC50 in assay [2] was 1.4 µM.

On angiotensin II receptor, `CCCCc1nc(Cl)c(CO)n1Cc1ccc([C@@H]2CCCC[C@H]2C(=O)NS(=O)(=O)c2ccc(C)cc2)cc1` (relative stereo) [Example 9] displayed a Ki of 0.12 µM. Moreover, in assay [2], the IC50 worked out at 0.92 µM.

`CCCCc1nc(Cl)c(C(=O)O)n1Cc1ccc([C@@H]2CCCC[C@H]2C(=O)NS(=O)(=O)c2ccc(C)cc2)cc1` (relative stereo) [Example 13, N-(4-Tolylsulphonyl)-trans-2-[4-(2-butyl-4-chloro-5-carboxy-imidazol-1-yl-methyl)phenyl]-cyclohexane-1-carboxamide] gave a Ki at angiotensin II receptor of 0.072 µM. Besides, in assay [2], the IC50 turned out to be 0.24 µM.

For `CCCCc1nc(Cl)c(C=O)n1Cc1ccc([C@@H]2CCCC[C@H]2c2nnn[nH]2)cc1` (relative stereo) [Example 16, 5-{trans-2-[4-(2-Butyl-4-chloro-5-formyl-imidazol-1-yl-methyl)-phenyl]-cyclohex-1-yl}-tetrazole], on angiotensin II receptor, the Ki amounted to 0.44 µM.
